Measured values taken from patent US8765720B2, “Combination therapy for the treatment of multiple myeloma” (Cephalon, Inc., priority 2009, dated 2014).

Tests used:
MM1S cells = assay: Cell viability assay (MTS assay), MM1S cells; type: cell-based, human; conditions: 48 hours
Method: In vitro synergy between COMPOUND 1 and bortezomib or melphalan was assessed using the median effect method of Chou and Talalay (30). Combination indices (CIs) were calculated separately for each combination. […] CIs between 0.9 and 1.1 were considered to indicate additive drug effects (31).

in vitro = conditions: human
Source text: (§1) The human myeloma cell line RPMI8226 was obtained from American Type Culture Collection (Rockville, Md.). The MM1S myeloma cell line was provided by Dr. Steven Rosen (Northwestern University, Chicago, Ill.). Normal peripheral blood mononuclear cells (PBMCs) were isolated by Histopaque® density gradient centrifugation, according to the manufacturer's protocol (Sigma-Aldrich, St. Louis, Mo.). Myeloma cell lines and PBMCs were maintained in RPMI 1640 (Omega Scientific, Tarzana, Calif.) supplemented with 10% fetal bovine serum, 2 mM L-glutamine, 100 IU/mL penicillin, 100 μg/mL streptomycin, and essential amino acids in an atmosphere of 5% carbon dioxide (CO2) at 37° C.
(§2) Cells were seeded at 10^5 cells/100 μL/well in 96-well plates and incubated for 24 hours. RPMI8226 and MM1S cells were cultured in the presence of vehicle, COMPOUND 1, bortezomib, melphalan, COMPOUND 1+bortezomib, or COMPOUND 1+melphalan for 48 hours. After the incubation period, cell viability was quantified using the CellTiter 96® AQueous Non-Radioactive Cell Proliferation Assay (Promega, Madison, Wis.). Each well was treated with MTS (3-(4,5-dimethylthiazol-2-yl)-5-(3-carboxymethoxyphenyl)-2-(4-sulfophenyl)-2H-tetrazolium, inner salt) for 1 to 4 hours, after which absorbance was recorded at 490 nm. The quantity of formazan product as measured by absorbance at 490 nm is directly proportional to the number of living cells in culture.
(§3) In order for therapy with two or more PIs to be feasible in vivo, the combination must spare non-neoplastic cells. […] A healthy donor's PBMCs were cultured for 48 hours in the presence of COMPOUND 1 alone, bortezomib alone, or both agents together, and cell viability was quantified by MTS assay.

[1] = system: normal peripheral blood mononuclear cells (PBMCs); assay: in vitro
Source text: as §1, §2, §3

LAGκ-1A tumor = assay: Intramuscular LAGκ-1A tumor xenograft model (serum hIgG, tumor volume); conditions: for serum hIgG levels: 28 days of treatment; for serum hIgG levels and tumor volume vs vehicle: alone or together
Method: Six- to 8-week-old male severe combined immunodeficient (SCID) mice were obtained from the Jackson Laboratory (Bar Harbor, Me.) and maintained in a specific pathogen-free area in our animal resources facility. All animal studies were conducted according to protocols approved by the Institutional Animal Care and Use Committee. Animals were anesthetized with ketamine, xylazine, and isoflurane prior to surgery and were euthanized when tumors reached 2 cm in diameter.
Biopsy tissue was surgically implanted in the hind limbs of anesthetized SCID mice and passaged through succeeding generations (32).
Myeloma tumors (LAGκ-1A or LAGκ-1B) were excised from an anesthetized donor mouse, sectioned into 20 to 40 mm^3 pieces, and surgically implanted into the left superficial gluteal muscle of anesthetized naive SCID mice. Recipient mice received weekly injections of anti-asialo GM1 rabbit serum (Wako Bioproducts, Richmond, Va.) to further suppress immune activity. Mice were blindly assigned to one of the experimental groups, and treatment was initiated 7 to 21 days after tumor implantation. COMPOUND 1 was administered via oral gavage daily (0.5-5.0 mg/kg) or twice weekly (5-10 mg/kg). COMPOUND 1 was also administered twice weekly (W, F) via either IV injection (0.5-3.0 mg/kg) or oral gavage (10 mg/kg), as specified. Melphalan (1 mg/kg) was provided via weekly intraperitoneal (IP) injections (W). Bortezomib (0.5 mg/kg) was dispensed twice weekly (T, Th) via IV injection. Control treatment consisted of COMPOUND 1 diluent (3.2 mL 5% mannitol and 800 μL propylene glycol) alone.
Mice bearing MM tumors underwent weekly retro-orbital bleeds. Resulting samples were spun at 13,000 rpm for 30 minutes to isolate serum. The hIgG ELISA kit (Bethyl Laboratories, Montgomery, Tex.) was used according to the manufacturer's specifications. Absorbance at 450 nm with a reference wavelength of 550 nm was determined on a μQuant microplate spectrophotometer with KC Junior software (Bio-Tek Instruments, Winooski, Vt.). Data graphed are the mean±SEM with n=7-8 mice/group.
As a direct measurement of tumor growth, calipers were used to assess tumor volume weekly, and the formula for an ellipsoid volume was applied ( 4/3π×[width/2]^2×[length/2]).
Percent inhibition of tumor growth is represented as the tumor volume of the test drug group over the tumor volume of the untreated group (T/C). The optimal value is the minimal T/C ratio that reflects the maximal tumor growth inhibition achieved. The criterion for efficacy for the T/C ratio is ≦42%, according to National Cancer Institute (NCI) standard criteria (44).
Efficacy of drug therapy against tumors was standardized to the time (t) required for the untreated tumor to grow to a determined size based on the greatest difference in time to reach a tumor volume between the control and treatment group. This value can be represented as the growth delay (in days) between treated and control (tt−tc) (44).
Tumor growth and hIgG levels were analyzed in terms of treatment group means and standard error. Student's t-test was applied to determine the statistical significance of differences between treatment groups. Minimal significance level was P<0.05.

In the case of CC(C)C[C@H](NC(=O)[C@@H](NC(=O)c1cccc(-c2ccccc2)n1)[C@@H](C)O)B(O)O [COMPOUND 1, [(1R)-1-[[(2S,3R)-3-hydroxy-2-[6-phenyl-pyridine-2-carbonyl)amino]-1-oxobutyl]amino]-3-methylbutylboronic acid], the inhibition of viability (MM1S cells; COMPOUND 1 0.1-10 nM) is reported as “concentration-dependent inhibition of viability”, the cytotoxicity at 0.00175 µM (MM1S cells; Homo sapiens, MM1.S, single-agent COMPOUND 1 1.75 nM, read-out: inhibition of cell viability) is reported as about 16% and the viability at 48 h, 0.009 µM (in vitro) is reported as about 75%. The “cytotoxic effects on normal PBMCs” value [1] was “negligible cytotoxic effects”, the “serum hIgG levels” value (LAGκ-1A tumor; 1 mg/kg and 3 mg/kg IV twice weekly, P=0.0001 / P=0.0002 vs control) was “essentially undetectable” and the “serum hIgG levels and tumor volume vs vehicle” value (LAGκ-1A tumor; COMPOUND 1 1 mg/kg IV, bortezomib 0.5 mg/kg IV, twice weekly) was “only partially inhibited”. For the same molecule, the “reduction in the volume of tumors vs control” value (LAGκ-1A tumor; IV 1 or 3 mg/kg twice weekly, after 4 weeks, P=0.0001) was “approximately 15 fold”, the “serum hIgG levels and tumor volume vs vehicle” value (LAGκ-1A tumor; melphalan 1 mg/kg IP weekly, COMPOUND 1 1 mg/kg IV twice weekly, 3 weeks) was “nonsignificant decrease” and the “delay of tumor volume growth to 87.5 mm^3” value (LAGκ-1A tumor; mouse, in vivo, po, 5 mg/kg) was 53 days. The “tumor inhibition (hIgG, tumor volume)” value (LAGκ-1A tumor; mouse, in vivo, po, 5 mg/kg) was “significant tumor inhibition”, the “mice died of drug-related toxicity” value (LAGκ-1A tumor; oral 5 mg/kg daily) was “Two of fifteen” and the “delay of tumor volume growth to 87.5 mm^3” value (LAGκ-1A tumor; oral 5 mg/kg daily, vs untreated control) was 530%. For the same molecule, the “mice surviving five weeks of dosing and three week follow-up” value (LAGκ-1A tumor; oral 10 mg/kg twice weekly) was 15/15, the “Percentage T/C” value (LAGκ-1A tumor; oral 10 mg/kg twice weekly, day 21) was 29.3% and the “Percentage T/C” value (LAGκ-1A tumor; oral 10 mg/kg twice weekly, day 28) was 17.3%. For the same molecule, the “delay of tumor volume growth to 700 mm^3” value (LAGκ-1A tumor; oral 10 mg/kg twice weekly, day 32.5 control vs day 63) was 30.5 days, the “Percentage T/C” value (LAGκ-1A tumor; oral 10 mg/kg twice weekly, day 35) was 6.1% and the “Percentage T/C” value (LAGκ-1A tumor; oral 10 mg/kg twice weekly, day 42) was 6.1%. For the same molecule, the “Percentage T/C” value (LAGκ-1A tumor; oral 10 mg/kg twice weekly, day 49) was 10.6%, the “human paraprotein secretion and tumor volume” value (LAGκ-1A tumor; oral 10 mg/kg twice weekly, three weeks (day 28), hIgG P=0.0011, tumor volume P=0.001) was “significant inhibition of both human paraprotein secretion and reduction of tumor volume” and the “delay of tumor volume growth to 700 mm^3” value (LAGκ-1A tumor; oral 10 mg/kg twice weekly, vs no treatment) was 93.8%. The “tumor volume vs control-treated tumors” value (LAGκ-1A tumor; oral (10 mg/kg twice weekly), 14 days of treatment, P=0.0002) was “marked reduction in tumor volume”, the “serum hIgG levels” value (LAGκ-1A tumor; oral (10 mg/kg twice weekly), P=0.0001) was “negligible” and the “serum hIgG levels vs control-treated animals” value (LAGκ-1A tumor; oral (10 mg/kg twice weekly), within 2 weeks of treatment, P=0.0007) was “significantly lower”. For the same molecule, the “anti-myeloma activity (human IgG levels and tumor volumes)” value (LAGκ-1A tumor; oral, daily, 3 mg/kg) was “moderate anti-myeloma activity” and the “paraprotein secretion from tumors” value (LAGκ-1A tumor; single-agent IV twice weekly, escalating doses) was “dose-dependent decrease in paraprotein secretion”.
